Patent US20220127297A1, “Novel Antibacterial 3"-Derivatives Of 4,6-Disubstituted 2,5-Dideoxystreptamine Aminoglycoside Antibiotics” (AGILeBiotics B.V., priority 2018, published 2022)
Where two headings read alike, the source gives them in different places.

Key:
Experiment in all cases: MIC determination at University Medical Center Groningen
Assay type in all cases: cell-based
[1] = tested on: clinical isolates of Acinetobacter baumannii (and ATCC17978)
Excerpt: (§1) 3.4.3 MIC Determination at University Medical Center Groningen (the Netherlands)
(§2) Tested reference compounds. Amikacin sulfate (Cat. No. 01693, Chem-Impex), Gentamicin sulfate (Cat. No. G4918, Sigma Aldrich).
(§3) Bacterial strains/isolates. Pseudomonas aeruginosa ATCC 27853, Escherichia coli ATCC 25922, Klebsiella pneumonia ATCC43816, Acinetobacter baumannii ATCC17978, 9 clinical isolates of Klebsiella pneumonia (origin: 4 unknown, 3 urine, 1 sputum, 1 catheter tip), 7 clinical isolates of Pseudomonas aeruginosa (origin: 3 unknown, 1 wound, 1 catheter, 1 faeces, bronco alveolar liquid=BAL), 8 clinical isolates of Escherichia coli (origin: 2 bile liquid, 2 rectum, 1 throat, 2 blood culture, 1 sputum), 4 clinical isolates of Acinetobacter baumannii (origin: 2 blood culture, 1 sputum, 1 bone).
(§4) Culture media and equipment. As indicated by EUCAST guidelines (European Committee on Antimicrobial Susceptibility Testing (EUCAST); Media preparation for EUCAST disk diffusion testing and for determination of MIC values by the broth microdilution method; Version 5.0, 2017), Mueller Hinton Broth, CM0405, (Oxoid) was used for the broth micro-dilutions; and Mueller Hinton Agar, CM0337, (Oxoid) was used for the plating on agar. The testing assays were conducted in 96-well plates, with U-bottom shape (Greiner Bio-one); All bacteria strains/isolates used were handled in a Laminar flow, Clean Air (Baker). A CO2 incubator commercialized by Sanyo was used. Finally, spectrophotometer measurements were conducted using a Synergy 2 Multi-detection Microplate Reader (BioTek).
(§5) Compound preparation. The compounds were weighed and dissolved into MilliQ water. These concentrated stock aliquots were then further diluted to reach the desired testing concentrations. Serial dilutions were made in order to achieve the ten desired final concentrations for the tested compounds, that ranged between 64-0.125 μg/mL. The concentrations were calculated in respect to the 150 μL of final volume used for each of the 96-wells. Of these dilutions, 100 μL was added in each testing well of a sterile 96-well plate. All compound dilutions were plated in triplicate, while duplicates were used for the two reference antibiotics.
(§6) Inoculum preparation. The clinical isolates were revived from Luria Bertani medium storage at −80° C. by plating them overnight on MH agar plates. The following day, a few colonies were picked and inoculated in small glass bottles containing 10 mL MH broth. Growth was subsequently allowed for approx. 3 hours, at 35° C. with 250 rpm shaking, until the isolates reached late logarithmic growth phase. At this point culture solutions were prepared with an OD600 (optical density measured at 600 nm; measured using Synergy 2 Multi-detection Microplate Reader; BioTek) of 0.05. […] 50 μL of culture suspension was added to each of the wells of the 96 well plate previously loaded with the desired antibiotic/medium solution, reaching a final total volume of 150 μL per well. As controls, blanks of the MH medium and of culture were added to the 96-well plate. Plates were incubated in a plate incubator in static conditions at 35° C. for 18 hours.
(§7) MIC determination. After the incubation time, the MIC value was determined by visual inspection of bacterial growth within 96-well plates. The first column in which there was no visible growth of bacteria was determined as the MIC90 value for the compound tested in that particular row. Additionally, spectrophotometer readouts at 600 nm were recorded for each well.
(§8) MIC90. The MIC90 of a compound was assigned at which no visible growth of bacteria was determined.

[2] = tested on: clinical isolates of Escherichia coli (and ATCC 25922)
Excerpt: as §1, §2, §3, §4, §5, §6, §7, §8

[3] = tested on: clinical isolates of Klebsiella pneumonia (and ATCC43816); conditions: Klebsiella pneumoniae
Excerpt: as §1, §2, §3, §4, §5, §6, §7, §8

[4] = tested on: clinical isolates of Pseudomonas aeruginosa (and ATCC 27853)
Excerpt: as §1, §2, §3, §4, §5, §6, §7, §8

Question: What does the source list for `N=C(N)NC1C(O)[C@@H](CO)OC(OC2C(F)[C@H](O[C@H]3OC(CN)[C@@H](O)CC3N)C(N)C[C@H]2NC(=O)[C@@H](O)CCN)[C@@H]1O` (stereo partly drawn) [ABX5006, Tobra-AHB-F-Gua]?
Answer: MIC90 ([1]; ATCC17978, A. baumannii ATCC17978 strain, broth micro-dilution (CLSI)): < 0.125 mg/L; MIC90 ([1]; ATCC17978, A. baumannii clinical isolate AB-2, Multidrug-resistant, origin Sputum): 0.5 to 1 mg/L; MIC90 ([1]; ATCC17978, A. baumannii clinical isolate AB-10, Multidrug-resistant, origin Blood culture): 0.5 to 1 mg/L; MIC90 ([1]; ATCC17978, A. baumannii clinical isolate AB-14, Multidrug-resistant, origin Blood culture): 0.5 to 1 mg/L; MIC90 ([1]; ATCC17978, A. baumannii clinical isolate AB-18, Multidrug-resistant, origin Bone): 2 to 4 mg/L; MIC90 ([2]; ATCC25922, E. coli ATCC25922 strain, broth micro-dilution (CLSI)): 0.5 mg/L; MIC90 ([2]; ATCC25922, E. coli clinical isolate EC-11, Multidrug-resistant, origin Throat): 0.5 mg/L; MIC90 ([2]; ATCC25922, E. coli clinical isolate EC-12, Multidrug-resistant, origin Rectum): 2 mg/L; MIC90 ([2]; ATCC25922, E. coli clinical isolate EC-22, Multidrug-resistant, origin Sputurn): 4 mg/L; MIC90 ([2]; ATCC25922, E. coli clinical isolate EC-25, Multidrug-resistant, origin Bile liquid): 4 mg/L; MIC90 ([2]; ATCC25922, E. coli clinical isolate EC-26, Multidrug-resistant, origin Bile liquid): 4 mg/L; MIC90 ([2]; ATCC25922, E. coli clinical isolate EC-40, Multidrug-resistant, origin Blood culture): 2 mg/L; MIC90 ([2]; ATCC25922, E. coli clinical isolate EC-43, Multidrug-resistant, origin Rectum): 4 mg/L; MIC90 ([2]; ATCC25922, E. coli clinical isolate EC-46, suceptible, origin Blood culture): 2 mg/L; MIC90 ([3]; ATCC43816, K. pneumoniae ATCC43816 strain, broth micro-dilution (CLSI), read-out: MIC 90): 0.25 mg/L; MIC90 ([3]; ATCC43816, K. pneumoniae clinical isolate KP-107, KPC/Pandrug-resistant, origin Urine, read-out: MIC 90): 8 mg/L; MIC90 ([3]; ATCC43816, K. pneumoniae clinical isolate KP-108, KPC/Pandrug-resistant, origin Urine, read-out: MIC 90): 8 mg/L; MIC90 ([3]; ATCC43816, K. pneumoniae clinical isolate KP-109, KPC/Pandrug-resistant, origin Catheter tip, read-out: MIC 90): 16 mg/L; MIC90 ([3]; ATCC43816, K. pneumoniae clinical isolate KP-110, KPC/Pandrug-resistant, origin Sputum, read-out: MIC 90): 8 mg/L; MIC90 ([3]; ATCC43816, K. pneumoniae clinical isolate KP-111, KPC/Pandrug-resistant, origin Urine, read-out: MIC 90): 8 mg/L; MIC90 ([3]; ATCC43816, K. pneumoniae clinical isolate KP-113, KPC/Pandrug-resistant, origin unkown): 4 mg/L; MIC90 ([4]; ATCC27853, P. aeruginosa ATCC27853 strain, broth micro-dilution (CLSI), read-out: MIC 90): 0.25 mg/L; MIC90 ([4]; ATCC27853, P. aeruginosa clinical isolate PA-179, Multidrug-resistant, origin Wound, read-out: MIC 90): 2 to 4 mg/L; MIC90 ([4]; ATCC27853, P. aeruginosa clinical isolate PA-195, Multidrug-resistant, origin Catheter, read-out: MIC 90): 0.5 to 1 mg/L; MIC90 ([4]; ATCC27853, P. aeruginosa clinical isolate PA-198, Multidrug-resistant, origin unkown): 1 to 2 mg/L; MIC90 ([4]; ATCC27853, P. aeruginosa clinical isolate PA-202, Multidrug-resistant, origin Faeces, read-out: MIC 90): 0.25 to 0.5 mg/L; MIC90 ([4]; ATCC 27853 / BAL, P. aeruginosa clinical isolate P4-171, Pandrug-resistant, origin BAL, read-out: MIC 90): 8 mg/L
